Where “and” joins values, the source holds several entries; their conditions need not be identical. Equal values may be shown once. Calls of active or inactive are those of the source. The calls are words filed in the database; no cut-off is given here.
What was measured:
Leishmania donovani [1] = assay: (§1) Antileishmanial activity against Leishmania donovani BPK091 promastigotes transfected with Leishmania donovani BPK190 genomic cosmid DNA assessed as decrease in parasite growth at IC75 concentration incubated for 3 days under selective pressure and selection cycle repeated for 25 passages and measured at 43 to 78 days of selection; assay type: functional, organism-based
[2] = Binding affinity to pepsin in porcine gastric mucosa in phosphate buffer assessed as increase in emission intensity at 530 nm at 5 uM measured at pH 8 by fluorescence emission spectrum analysis; assay type: ADME, Sus scrofa; details: pig
[3] = Chemical stability of compound in PBS assessed as decrease in absorbance at 20 uM at pH 8 measured after 2 mins nitrogen bubbling by UV-vis spectrophotometry analysis; assay type: physicochemical; details: read-out: Drug degradation
Leishmania infantum [4] = assay: Antileishmanial activity against Leishmania infantum amastigotes infected in Syrian hamster assessed as parasite load within liver at 40 mg/kg/day, po for 10 days formulated with 30% v/v cyclodextrin (reference value: 4333333.333 +/- 3444802.849 /g); assay type: functional
[5] = Toxicity in Syrian hamster infected with Leishmania infantum BCN150 promastigotes assessed as effect on plasma urea level at 40 mg/kg/day, po for 10 days formulated with 30 to 50% v/v cyclodextrin measured after the last treatment; assay type: organism-based, Mesocricetus auratus; details: in vivo, 240 h
[6] = Toxicity in Syrian hamster infected with Leishmania infantum BCN150 promastigotes assessed as adverse effects at 20 mg/kg/every 12 hrs, po for 10 days formulated with 30% v/v cyclodextrin measured daily; assay type: organism-based, Mesocricetus auratus; details: in vivo
[7] = Toxicity in Syrian hamster infected with Leishmania infantum BCN150 promastigotes assessed as adverse effects at 20 mg/kg/every 12 hrs, po for 10 days formulated with 8% v/v DMSO measured daily; assay type: organism-based, Mesocricetus auratus; details: in vivo
[8] = Half-life in BALB/c mouse at 20 mg/kg, po measured upto 72 hrs by snapshot method; assay type: ADME, organism-based; details: in vivo
[9] = Toxicity in Syrian hamster infected with Leishmania infantum BCN150 promastigotes assessed as effect on plasma creatinine level at 40 mg/kg/day, po for 10 days formulated with 8% v/v DMSO; assay type: organism-based, Mesocricetus auratus; details: in vivo, 240 h
Albumin [10] = biological target: Albumin (Homo sapiens, UniProt P02768); assay: Binding affinity to human serum albumin in phosphate buffer assessed as increase in emission anisotropy at 530 nm at 5 uM measured at pH 8 by fluorescence emission spectrum analysis; assay type: ADME; details: isolated protein
Chain of Albumin (Homo sapiens, UniProt P02768) (P02768 whole entry): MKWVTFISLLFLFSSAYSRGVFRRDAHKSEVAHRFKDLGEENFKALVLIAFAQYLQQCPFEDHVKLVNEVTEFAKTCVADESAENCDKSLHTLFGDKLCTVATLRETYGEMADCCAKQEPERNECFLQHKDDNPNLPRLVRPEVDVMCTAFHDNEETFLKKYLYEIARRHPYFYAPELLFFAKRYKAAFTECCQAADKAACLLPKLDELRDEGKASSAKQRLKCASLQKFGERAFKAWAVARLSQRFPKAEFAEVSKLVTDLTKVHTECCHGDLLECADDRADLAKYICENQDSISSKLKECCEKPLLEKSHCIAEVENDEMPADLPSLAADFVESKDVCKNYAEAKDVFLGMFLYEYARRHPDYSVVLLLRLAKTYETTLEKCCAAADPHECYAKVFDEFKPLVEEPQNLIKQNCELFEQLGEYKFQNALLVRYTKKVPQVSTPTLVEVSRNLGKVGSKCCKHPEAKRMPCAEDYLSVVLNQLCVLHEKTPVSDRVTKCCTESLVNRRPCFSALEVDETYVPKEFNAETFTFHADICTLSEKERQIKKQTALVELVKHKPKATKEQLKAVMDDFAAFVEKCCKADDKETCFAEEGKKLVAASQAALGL

[11] = Toxicity in Syrian hamster infected with Leishmania infantum BCN150 promastigotes assessed as effect on AST level at 40 mg/kg/day, po for 10 days formulated with 30 to 50% v/v cyclodextrin measured after the last treatment; assay type: organism-based, Mesocricetus auratus; details: in vivo, 240 h
[12] = Toxicity in Syrian hamster infected with Leishmania infantum BCN150 promastigotes assessed as liver weight at 40 mg/kg/day, po for 10 days formulated with 50% v/v cyclodextrin (reference value: 5.892 +/- 0.446 g); assay type: organism-based, Mesocricetus auratus; details: in vivo, 240 h
[13] = Stability of the compound in phosphate buffer assessed as compound abundance at 450 nm at 5 uM measured at pH 8 by fluorescence emission spectrum analysis; assay type: physicochemical; details: read-out: Stability
[14] = AUC (total) in BALB/c mouse at 20 mg/kg, po measured upto 72 hrs by snapshot method; assay type: ADME, organism-based; design: time < 72 hr, dose 20 mg/kg, route oral; details: in vivo
Leishmania infantum [15] = assay: Antileishmanial activity against Leishmania infantum amastigotes infected in Syrian hamster assessed as parasite load within liver at 40 mg/kg/day, po for 10 days formulated with 8% v/v DMSO (reference value: 5333333.333 +/- 3011090.611/g); assay type: functional
[16] = Half-life in BALB/c mouse at 1 mg/kg, iv measured upto 72 hrs by snapshot method; assay type: ADME, organism-based; details: in vivo
[17] = Toxicity in Syrian hamster infected with Leishmania infantum BCN150 promastigotes assessed as effect on ALT level at 40 mg/kg/day, po for 10 days formulated with 30 to 50% v/v cyclodextrin measured after the last treatment; assay type: organism-based, Mesocricetus auratus; details: in vivo, 240 h
Leishmania infantum [18] = assay: Antileishmanial activity against Leishmania infantum amastigotes infected in Syrian hamster assessed as reduction in parasite load at 40 mg/kg/day, po for 10 days formulated with 8% v/v DMSO relative to control; assay type: functional; details: 240 h
Leishmania infantum [19] = assay: Anti-leishmanial activity against Leishmania infantum BCN150 promastigotes infected in Syrian hamster assessed as decrease in anti-leishmanial IgG level at 40 mg/kg/day, po for 10 days formulated with […] v/v DMSO by ELISA; assay type: functional, organism-based
Albumin [20] = biological target: T1, Albumin (Bos taurus, UniProt P02769); assay: Binding affinity to bovine serum albumin in phosphate buffer assessed as compound lifetime at 530 nm at 5 uM measured at pH 8 by fluorescence emission spectrum analysis; assay type: ADME; details: cattle, isolated protein
T1 sequence (P02769 whole entry): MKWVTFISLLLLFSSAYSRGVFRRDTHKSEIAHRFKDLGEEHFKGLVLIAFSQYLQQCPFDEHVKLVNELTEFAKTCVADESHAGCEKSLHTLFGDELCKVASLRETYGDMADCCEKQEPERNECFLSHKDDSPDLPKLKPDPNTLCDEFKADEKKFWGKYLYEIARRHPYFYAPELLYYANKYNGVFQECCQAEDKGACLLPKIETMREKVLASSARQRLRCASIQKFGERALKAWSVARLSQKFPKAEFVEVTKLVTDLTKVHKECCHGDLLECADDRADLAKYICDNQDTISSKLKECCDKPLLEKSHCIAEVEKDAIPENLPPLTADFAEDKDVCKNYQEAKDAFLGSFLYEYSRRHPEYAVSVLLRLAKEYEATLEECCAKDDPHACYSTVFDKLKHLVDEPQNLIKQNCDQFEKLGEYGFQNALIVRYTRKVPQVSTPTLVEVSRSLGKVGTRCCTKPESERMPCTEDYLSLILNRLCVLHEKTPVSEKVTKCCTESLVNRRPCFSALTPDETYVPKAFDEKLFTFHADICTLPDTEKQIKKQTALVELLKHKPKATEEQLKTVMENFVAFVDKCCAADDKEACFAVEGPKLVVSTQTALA

[21] = Cytotoxicity against human THP1 cells by MTT assay; assay type: cell-based, THP-1
[22] = Toxicity in Syrian hamster infected with Leishmania infantum BCN150 promastigotes assessed as liver weight at 40 mg/kg/day, po for 10 days formulated with 30% v/v cyclodextrin (reference value: 5.102 +/- 0.729 g); assay type: organism-based, Mesocricetus auratus; details: in vivo, 240 h
[23] = Plasma concentration in syrian hamster infected with Leishmania infantum BCN150 promastigote at 40 mg/kg/day, po for 10 days formulated with 30% v/v cyclodextrin; assay type: ADME, organism-based, Mesocricetus auratus
Albumin [24] = biological target: T1, Albumin; assay: Binding affinity to bovine serum albumin in phosphate buffer assessed as increase in emission anisotropy at 530 nm at 5 uM measured at pH 8 by fluorescence emission spectrum analysis; assay type: ADME; details: cattle, isolated protein
Leishmania infantum [25] = assay: Antileishmanial activity against Leishmania infantum amastigotes infected in Syrian hamster assessed as parasite load within spleen at 40 mg/kg/day, po for 10 days formulated with 30% v/v cyclodextrin (reference value: 9874032.937 +/- 3482270.184/g); assay type: functional
Leishmania infantum [26] = assay: Antileishmanial activity against Leishmania infantum amastigotes infected in Syrian hamster assessed as reduction in parasite load at 40 mg/kg/day, po for 10 days formulated with 50% v/v cyclodextrin relative to control; assay type: functional; details: 240 h
[27] = Toxicity in Syrian hamster infected with Leishmania infantum BCN150 promastigotes assessed as effect on alkaline phosphatase level at 40 mg/kg/day, po for 10 days formulated with 8% v/v DMSO measured after the last treatment; assay type: organism-based, Mesocricetus auratus; details: in vivo, 240 h
[28] = Selectivity index, ratio of CC50 for human THP1 cells to EC50 for luciferase expressing intracellular amastigote stage of Leishmania infantum infected in human THP1 cells; assay type: toxicity, cell-based; details: read-out: Ratio CC50/EC50
Leishmania infantum [29] = assay: Antileishmanial activity against Leishmania infantum amastigotes infected in Syrian hamster assessed as parasite load within liver at 20 mg/kg/day, po for 10 days (reference value: 5333333.333 +/- 3011090.611/g); assay type: functional
Leishmania donovani [30] = assay: as §1, with “assessed as parasite growth” for “assessed as decrease in parasite growth”, “of selection relative to control” for “of selection”; assay type: functional
[31] = Toxicity in Syrian hamster infected with Leishmania infantum BCN150 promastigotes assessed as spleen lesions at 20 mg/kg/day, po for 10 days; assay type: organism-based, Mesocricetus auratus; details: in vivo, 240 h
Leishmania infantum [32] = assay: Antileishmanial activity against Leishmania infantum amastigotes infected in Syrian hamster assessed as reduction in parasite load in liver at 20 mg/kg/day, po for 10 days relative to control; assay type: functional; details: 240 h
[33] = Toxicity in Syrian hamster infected with Leishmania infantum BCN150 promastigotes assessed as dizziness at 20 mg/kg/day, po for 10 days measured daily; assay type: organism-based, Mesocricetus auratus; details: in vivo, 240 h

Question: For `COc1ccc2oc(-c3csc4ccccc34)c(O)c(=O)c2c1`, which inhibition (Leishmania donovani [1]) is on record?
Answer: Its inhibition is “Active”.

Question: And the Activity [2]?
Answer: The Activity was “Active”.

Question: And the degraded at 2 min, 20 µM [3]?
Answer: The degraded at 2 min, 20 µM was over 90%.

Question: What about the Activity (Leishmania infantum [4]) of the same molecule?
Answer: Its Activity is 3428571.429 g⁻¹.

Question: What about the Activity [5] of the same molecule?
Answer: The Activity was “Non-Toxic”.

Question: And the Activity [6]?
Answer: Its Activity is “Non-Toxic”.

Question: And the Activity [7]?
Answer: The Activity was “Non-Toxic”.

Question: What about the half-life [8] of the same molecule?
Answer: Its half-life is 46.9 h.

Question: What about the Activity [9] of the same molecule?
Answer: The Activity was “Non-Toxic”.

Question: What about the Activity (Albumin [10]) of the same molecule?
Answer: Its Activity is “Active”.

Question: What about the Activity [11] of the same molecule?
Answer: The Activity was “Non-Toxic”.

Question: What about the Activity [12] of the same molecule?
Answer: Its Activity is 5.522 g.

Question: And the remaining at 5 µM [13]?
Answer: Its remaining at 5 µM is 90 to 95%.

Question: And the AUC at 72 h [14]?
Answer: Its AUC at 72 h is 38.5 µM·h and 12500 ng·h/mL.

Question: What about the Activity (Leishmania infantum [15]) of the same molecule?
Answer: Its Activity is 4285714.286 g⁻¹.

Question: What about the half-life [16] of the same molecule?
Answer: Its half-life is 63.2 h.

Question: What about the Activity [17] of the same molecule?
Answer: The Activity was “Non-Toxic”.

Question: And the inhibition in vivo at 40 mg/kg/day (Leishmania infantum [18])?
Answer: The inhibition in vivo at 40 mg/kg/day was 25.9%.

Question: What about the inhibition (Leishmania infantum [19]) of the same molecule?
Answer: Its inhibition is “Active”.

Question: What about the Time (Albumin [20]) of the same molecule?
Answer: The Time was 5.5 nanoseconds.

Question: What about the CC50 [21] of the same molecule?
Answer: Its CC50 is 25 to 50 µM.

Question: What about the Activity [22] of the same molecule?
Answer: The Activity was 5.448 g.

Question: What about the concentration at 240 h [23] of the same molecule?
Answer: The concentration at 240 h was 76 nM.

Question: What about the Activity (Albumin [24]) of the same molecule?
Answer: Its Activity is “Active”.

Question: What about the Activity (Leishmania infantum [25]) of the same molecule?
Answer: Its Activity is 7030915.598 g⁻¹.

Question: What about the inhibition in vivo at 40 mg/kg/day (Leishmania infantum [26]) of the same molecule?
Answer: Its inhibition in vivo at 40 mg/kg/day is 35.8%.

Question: And the Activity [27]?
Answer: Its Activity is “Non-Toxic”.

Question: What about the selectivity ratio [28] of the same molecule?
Answer: Its selectivity ratio is 17.

Question: For `CCCCCCCCCCCCCCCCOP(=O)([O-])OCC[N+](C)(C)C` [MILTEFOSINE], which Activity (Leishmania infantum [29]) is on record?
Answer: The Activity was 1000000 g⁻¹.

Question: What about the Activity (Leishmania donovani [30]) of the same molecule?
Answer: The Activity was over 75%.

Question: And the Activity [31]?
Answer: Its Activity is “Non-Toxic”.

Question: What about the inhibition in vivo at 20 mg/kg/day (Leishmania infantum [32]) of the same molecule?
Answer: Its inhibition in vivo at 20 mg/kg/day is 81.2%.

Question: And the Activity [33]?
Answer: Its Activity is “Toxic”.

Source: ChEMBL document CHEMBL4311972, “Discovery of a benzothiophene-flavonol halting miltefosine and antimonial drug resistance in Leishmania parasites through the application of medicinal chemistry, screening and genomics” (Eur J Med Chem, 2019)
